Results published in patent publication US7968556B2, “Heteroaryl compounds, compositions thereof, and methods of treatment therewith” (Signal Pharmaceuticals, LLC, priority 2006, dated 2011).

Key:
mTOR = mTOR (Homo sapiens, UniProt P42345); test: mTOR HTR-FRET Assay; type: biochemical
Protocol: The following is an example of an assay that can be used to determine the mTOR inhibitory activity of a test compound. Reagents are prepared as follows:
“Simple TOR buffer” (used to dilute high glycerol TOR fraction): 10 mM Tris pH 7.4, 10 mM NaCl, 0.1% Tween-20, 1 mM DTT (from 1M stock frozen at −20° C. just prior to use). For convenience a large quantity of “Simple TOR buffer” w/o DTT can be stored at 4° C. It can be brought to room temperature and DTT added just prior to dilution of TOR fraction.
5XKB/5XMn/5×ATP solution (used to dilute substrate GST-p70S6kin 81 a.a. just prior to use) (40 ml screen quantity shown):
Enzyme solution: Dilute TOR fraction 1:14 in “Simple TOR Buffer”. For current lot that is 640 μg/ml TOR fraction diluted 14× to yield 45.7 μg/ml TOR in buffer (i.e. 7.85 ml TOR pooled fraction+102.1 ml Simple TOR buffer=110 ml 14× diluted TOR fraction). Each Enzyme Lot must be QC'd prior to assay.
Substrate solution: This may be prepared just prior to assay if preferred. Dilute 5.3 mg/ml GST-p70S6kinase fragment stock to 3.5 μg/ml (97 nM) working stock in 5XKB/5XMn/5×ATP solution (i.e. 26.41 μL (5.3 mg/ml) GST-p70S6+40 ml 5XKB/5XMn/5×ATP=40 ml 3.5 μg/ml (97 nM)).
Assay Buffer (for dilution of Antibodies used in Antibody Detection Reagent):
Antibody Detection Reagent (this reagent should be made just prior to addition to Assay Plates):
Using PlateTrak program (Screen) or Matrix Pipettor (SAR), 19.5 μL of diluted TOR fraction is added to assay plate in all test, reference or positive control wells. 19.5 μL of “Simple TOR buffer” is added to all negative control wells. If treating multiple plates with the same compounds, can increase volume of enzyme to multiples of 19.5 μL in a tall 384 well polypropylene plate.
Using EP3, 0.5 μl of test, reference or control DMSO is added to each well with mixing. Plates are incubated for 30 minutes at room temperature.
Using PlateTrak program (Screen) or Matrix Pipettor (SAR) 5 μL of 5XKB/5XMn/5×ATP/5× substrate solution is added to each well of the assay plate to start the reaction. The solutions are mixed well and incubated for 2 hours at room temperature.
Using PlateTrak program (Screen) or Matrix Pipettor (SAR) 5 μL of 60 mM EDTA is added to stop the reaction. The solutions are mixed well and allowed to sit for 15-20 minutes before the next step.
Using PlateTrak program (Screen) or Matrix Pipettor (SAR) 10 μl of Antibody Detection Reagent is added. The solutions are mixes well and incubated for 5 hours to O/N to allow antibodies to form complexes with phosphorylated substrate.
Plates are read on AnalystHT using protocol Multi-Method protocol.

IKK-2 = biological target: T1, IKK-2 (Homo sapiens, UniProt O14920, S177E/S181E); test: IKK-2 screening assay (IKK2EE 33P Assay / IKK2EE NEMO HTRF Assay); type: biochemical
T1 sequence (O14920 1-756 S177E/S181E): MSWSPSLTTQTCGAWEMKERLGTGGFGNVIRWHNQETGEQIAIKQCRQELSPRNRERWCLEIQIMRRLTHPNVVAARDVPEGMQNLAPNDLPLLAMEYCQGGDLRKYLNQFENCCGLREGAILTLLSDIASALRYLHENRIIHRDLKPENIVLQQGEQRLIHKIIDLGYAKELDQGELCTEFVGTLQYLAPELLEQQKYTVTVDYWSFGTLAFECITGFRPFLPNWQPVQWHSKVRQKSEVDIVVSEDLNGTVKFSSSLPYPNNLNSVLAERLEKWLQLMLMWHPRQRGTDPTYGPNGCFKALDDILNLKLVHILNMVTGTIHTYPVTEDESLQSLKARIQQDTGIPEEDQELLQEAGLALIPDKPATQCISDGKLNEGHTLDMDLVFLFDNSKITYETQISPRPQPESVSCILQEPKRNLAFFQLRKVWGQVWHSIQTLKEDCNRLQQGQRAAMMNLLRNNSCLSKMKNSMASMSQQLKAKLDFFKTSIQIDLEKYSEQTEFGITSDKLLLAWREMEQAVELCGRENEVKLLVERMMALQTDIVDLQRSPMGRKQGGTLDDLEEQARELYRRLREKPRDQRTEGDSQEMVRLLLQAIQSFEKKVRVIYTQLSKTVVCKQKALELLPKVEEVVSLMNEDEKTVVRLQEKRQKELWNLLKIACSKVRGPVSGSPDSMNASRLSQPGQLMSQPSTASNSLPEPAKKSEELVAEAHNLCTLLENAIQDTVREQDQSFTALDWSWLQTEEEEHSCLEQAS
Protocol: The following is an example of an assay that can be used to determine the IKK2EE inhibitory activity of a test compound.
A reaction buffer (pH 7.8) is prepared containing HEPES (20 mM), MgCl2 (10 mM), EDTA (0.1 mM), DTT (1 mM) and Triton X-100 (0.004%). IKK2EE (0.75 μg/ml is used. GST-IKBα (50 μg/ml) is used as substrate. Adenosine 5′-triphosphate (1.5 μM with ^33P-ATP 5 nCi/μl) is used. Reactions are stopped with trichloroacetic acid (6.25%).
Appropriate amounts of test compounds or controls in 100% DMSO are added to the assay plate. A peptide-substrate solution (PSS) is prepared by adding peptide stock to an appropriate volume of buffer (peptide concentration in the PSS will be about 100 μg/ml). An enzyme-peptide solution (EPS) is prepared by adding enzyme stock to an appropriate volume of PSS (the enzyme concentration in the EPS will be about 1 μg/ml). An ATP solution is prepared by adding ATP stock to an appropriate volume of buffer (the ATP concentration will be 15 μM).
85 μl of EPS is added to the assay wells (or PSS to positive control wells) of 96 well polypropylene plates. The ATP solution is then completed by adding ^33P-ATP (to a final concentration of 50 μCi/ml).
The reaction is initiated by adding 10 μl ATP solution to each well. Plates are shaken from about 12 seconds and allowed to incubate at room temperature for 1 hours. 100 μl of trichloroacetic acid solution (12.5%) is added to stop the reaction and the plates are incubated at room temperature for at least 10 minutes. The assay plates are harvested onto a Millipore Multiscreen harvest Plate FC using an appropriate harvester and the harvest plates are washed with 1×PBS solution for about 10 seconds (continuous flow). Harvest plates are allowed to dry thoroughly and the bottoms of the plates are sealed. 20-50 μl of Microscint20 is added to each well, tops are sealed and plates are read using an appropriate scintillation counter.
A reaction buffer (pH 7.6) is prepared containing HEPES (20 mM), MgCl2 (10 mM), EDTA (0.05 mM), DTT (1 mM) and Triton X-100 (0.004%). IKK2EE-NEMO (0.7 μg/ml is used. GST-IKBα (0.5 μg/ml) is used as substrate. Adenosine 5′-triphosphate (1.5 μM) is used. Detection reagents used are mouse anti-P-IKBα (30 ng/ml), Eu anti-mouse (300 ng/ml) and Cy5 anti-GST (11.5 μg/ml). Reactions are stopped with EDTA (20 mM).
An enzyme solution (ES) is prepared by adding enzyme stock to an appropriate volume of buffer (enzyme concentration in the ES will be about 1.7 ng/ml). A detection mixture (DM) is prepared by adding ATP (final conc. 3.75 μM), mouse anti-P-IKBα (final conc. 75 ng/ml), GST-IKBα (final conc. 1.26 μg/ml), Eu anti-mouse in buffer (final conc. 750 ng/ml).
5 μl of compound (solvated in 10% DMSO) is added to assay wells (or 10% DMSO to control wells) of low binding reaction plates. […] ES is added to assay wells (or buffer to control wells) and the reaction is initiated by adding 10 μl DM to all wells. Plates are incubated at room temperature for 45 minutes. Stop mixture is prepared by adding EDTA (final conc. 70 mM) and Cy5 anti-GST (final conc. 40 μg/ml) to an appropriate volume of buffer. Stop mixture is added and plates are shaken for 20 seconds and incubated at room temperature for at least 3 hours (preferably in the dark). Plates are read on an Analyst HT using Multi-Method HTRF.

SMILES | IC50 (mTOR) | IC50 (IKK-2) | melting point
Cn1c(=O)[nH]c2c(C(N)=O)nc(-c3cccnc3)nc21 [Compound 7, 9-methyl-8-oxo-2-(pyridin-3-yl)-8,9-dihydro-7H-purine-6-carboxamide] |  | > 30 µM | > 350 °C
Cc1ccccc1-n1c(=O)[nH]c2c(C(N)=O)nc(-c3cccc(O)c3)nc21 [Compound 9, 2-(3-hydroxyphenyl)-8-oxo-9-o-tolyl-8,9-dihydro-7H-purine-6-carboxamide] | 5.1 to 10 µM | > 30 µM | 366 to 367 °C
COc1ccccc1-n1c(=O)[nH]c2c(C(N)=O)nc(-c3cccc4[nH]ccc34)nc21 [Compound 10, 2-(1H-indol-4-yl)-9-(2-methoxyphenyl)-8-oxo-8,9-dihydro-7H-purine-6-carboxamide] | 5.1 to 10 µM | > 30 µM | 312 to 313 °C
COc1ccccc1-n1c(=O)[nH]c2c(C(N)=O)nc(-c3ccc4cc[nH]c4c3)nc21 [Compound 11, 2-(1H-indol-6-yl)-9-(2-methoxyphenyl)-8-oxo-8,9-dihydro-7H-purine-6-carboxamide] | 10.1 to 20 µM | > 30 µM | 203 to 204 °C
NC(=O)c1nc(-c2cccc(O)c2)nc2c1[nH]c(=O)n2-c1ccccc1Cl [Compound 14, 9-(2-chlorophenyl)-2-(3-hydroxyphenyl)-8-oxo-8,9-dihydro-7H-purine-6-carboxamide] | 0.1 to 5 µM | > 30 µM | 360 to 364 °C
NC(=O)c1nc(-c2cccc(O)c2)nc2c1[nH]c(=O)n2-c1ccccc1F [Compound 15, 9-(2-fluorophenyl)-2-(3-hydroxyphenyl)-8-oxo-8,9-dihydro-7H-purine-6-carboxamide] | 0.1 to 5 µM | > 30 µM | 
NC(=O)c1nc(-c2cccc(O)c2)nc2c1[nH]c(=O)n2C1CCCCC1 [Compound 33, 9-cyclohexyl-2-(3-hydroxyphenyl)-8-oxo-8,9-dihydro-7H-purine-6-carboxamide] | 0.1 to 5 µM | > 30 µM | 

Now from value to compound:

IC50 (mTOR) | IC50 (IKK-2) | melting point | SMILES
10.1 to 20 µM | > 30 µM | 334 to 335 °C | NC(=O)c1nc(-c2cccnc2)nc2c1[nH]c(=O)n2Cc1ccccc1 [Compound 1, 9-benzyl-8-oxo-2-(pyridin-3-yl)-8,9-dihydro-7H-purine-6-carboxamide]
> 30 µM | > 30 µM | > 330 °C | CNC(=O)c1nc(-c2cccnc2)nc2c1[nH]c(=O)n2-c1ccccc1 [Compound 2, N-methyl-8-oxo-9-phenyl-2-(pyridin-3-yl)-8,9-dihydro-7H-purine-6-carboxamide]
 | 20.1 to 30 µM | 347 to 349 °C | NC(=O)c1nc(-c2ccccn2)nc2c1[nH]c(=O)n2-c1ccccc1 [Compound 3, 8-oxo-9-phenyl-2-(pyridin-2-yl)-8,9-dihydro-7H-purine-6-carboxamide]
> 30 µM | > 30 µM | 283 to 286 °C | NC(=O)c1nc(-c2cccnc2Cl)nc2c1[nH]c(=O)n2-c1ccccc1 [Compound 4, 2-(2-chloropyridin-3-yl)-8-oxo-9-phenyl-8,9-dihydro-7H-purine-6-carboxamide]
> 30 µM | > 30 µM | 279 to 281 °C | COc1ncccc1-c1nc(C(N)=O)c2[nH]c(=O)n(-c3ccccc3)c2n1 [Compound 5, 2-(2-methoxypyridin-3-yl)-8-oxo-9-phenyl-8,9-dihydro-7H-purine-6-carboxamide]
> 30 µM | > 30 µM | 250 to 252 °C | CN(C)C(=O)c1nc(-c2cccnc2)nc2c1[nH]c(=O)n2-c1ccccc1 [Compound 6, N,N-dimethyl-8-oxo-9-phenyl-2-(pyridin-3-yl)-8,9-dihydro-7H-purine-6-carboxamide]
0.1 to 5 µM | 20.1 to 30 µM | 386 to 388 °C | COc1ccc(-n2c(=O)[nH]c3c(C(N)=O)nc(-c4cccc(O)c4)nc32)cc1 [Compound 12, 2-(3-hydroxyphenyl)-9-(4-methoxyphenyl)-8-oxo-8,9-dihydro-7H-purine-6-carboxamide]
0.1 to 5 µM | 10.1 to 20 µM |  | NC(=O)c1nc(-c2cccnc2)nc2c1[nH]c(=O)n2C1CCN(C(=O)OCc2ccccc2)CC1 [Compound 32, benzyl 4-(6-carbamoyl-8-oxo-2-(pyridin-3-yl)-7H-purin-9(8H)-yl)piperidine-1-carboxylate]
